# In publication PMC6377692 (EJNMMI Research, 2019):
# Bridge positions count the residues as written; N and C are the ends. Square brackets hold non-standard residues; d marks the D form. Peptide text beside a SMILES is read from it. * marks the point of attachment. DO3A(CH2CH2SO2CH2CH2) = O=C(O)CN1CCN(CCS(=O)(=O)CC*)CCN(CC(=O)O)CCN(CC(=O)O)CC1; Ala(4-thiazolyl) = N[C@@H](Cc1cscn1)C(=O)O
# Experiments:
# [1] = target: T1, human GCGR (HEK293 cells transfected with human GCGR) (Homo sapiens, UniProt P47871); test: in vitro autoradiography, blocking on sections of frozen pellet of GCGR-transfected cells; format: binding; conditions: n = 3
# T1 construct: expressed in transfected cells; host or cells: HEK293
# Method: (§1) Sections were added in duplicates in each individual assay, and each experiment was repeated at least three times with different batches of radioligand, except for rat sections that were only performed in one assay.
# (§2) After incubation, the sections were washed three times in 150 mL PBS. Sections were carefully dried at 37 °C and then exposed against a digital phosphorimager plate overnight together with a 10-μl droplet of radioactive reference (cross-calibrated against a gamma counter) on an absorbent paper attached to an object glass. The phosphor imager plates were scanned using a Cyclone Plus Phosphor imager (Perkin Elmer) at 600 dpi, and the resulting autoradiograms analyzed by ImageJ software (NIH, Bethesda). Pixel values in counts/mm^2 were converted to Bq/mm^2 by the included reference. Bq/mm^2 was further converted to fmol/mm^2 by the known specific radioactivity (fmol/Bq) of each batch of radiopharmaceutical.
# [2] = target: T2, GCGR in human liver sections (Homo sapiens, UniProt P47871); test: in vitro autoradiography, liver sections; format: binding
# T2 construct: tissue Uppsala Biobank (sample collection 827); host or cells: frozen human liver sections
# Method: Biopsies from donor human liver and pancreas were obtained from Uppsala Biobank (sample collection 827), and their use was approved by local ethical review board (EPN 2015/401).
# as §1, §2
# [3] = target: T3, HEK293 cells transfected with human GCGR (Homo sapiens, UniProt P47871); test: cellular internalization assay; format: cell-based
# T3 construct: expressed in transfected cells; host or cells: HEK293
# Method: The assay was also performed at 4 °C (5% CO2) for 60 and 120 min to suppress internalization. The exact number of cells in each well was assessed by cell counter. After incubation, the hot media containing the radioligand was removed and the cells washed with serum-free media two to three times while cells were put on ice.
# To measure membrane bound and internalized radioligand, cells were treated first with 0.2 M glycine buffer containing 4 M urea (pH 2.5) (acid wash buffer) and secondly 1 M NaOH (basic wash buffer).
# Briefly, first 0.5 mL of acid wash buffer was added to the cells and allowed to incubate for 5 min on ice. The supernatant was then removed and measured in a well counter (membrane bound fraction) (Uppsala Imanet AB, Uppsala, Sweden). The cells were washed one time, before 0.5 mL of basic wash buffer was added and allowed to incubate for 30 min at 37 °C. Then, the detached cells were collected and measured by well counter (internalized fraction). All samples were repeated in triplicates.
# The well counter data for each dish and condition was decay corrected to the time at the start of each experiment and expressed as Bq. The internalized and the total cell-associated (internalized + cell membrane bound) fractions were expressed as percentage of the total added radioligand per million of cells (%ID/M cells). […]
# T2 sequence (P47871 26-477): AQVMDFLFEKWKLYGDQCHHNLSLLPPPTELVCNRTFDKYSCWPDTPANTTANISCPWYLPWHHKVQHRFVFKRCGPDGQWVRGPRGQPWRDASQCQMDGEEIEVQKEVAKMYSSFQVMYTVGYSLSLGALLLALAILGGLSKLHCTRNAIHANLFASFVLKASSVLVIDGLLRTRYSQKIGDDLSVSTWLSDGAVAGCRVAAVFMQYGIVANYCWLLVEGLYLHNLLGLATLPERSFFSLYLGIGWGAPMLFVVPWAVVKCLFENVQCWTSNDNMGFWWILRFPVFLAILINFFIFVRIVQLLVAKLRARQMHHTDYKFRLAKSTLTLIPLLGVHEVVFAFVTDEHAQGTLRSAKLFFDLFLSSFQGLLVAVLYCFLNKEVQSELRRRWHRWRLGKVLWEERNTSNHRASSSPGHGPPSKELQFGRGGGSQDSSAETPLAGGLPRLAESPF
# T3 sequence (P47871 26-477): as above
# T1 sequence (P47871 26-477): as above
smiles,measurement,setting,value
"CC[C@H](C)[C@H](NC(=O)[C@H](Cc1ccccc1)NC(=O)[C@H](CCC(=O)O)NC(=O)[C@@H]1CCCCNC(=O)CC[C@H](NC(=O)[C@H](CC(=O)O)NC(=O)[C@H](CC(C)C)NC(=O)[C@H](CCC(N)=O)NC(=O)[C@H](CCCCN)NC(=O)[C@H](CO)NC(=O)[C@H](Cc2ccc(O)cc2)NC(=O)[C@H](CC(=O)O)NC(=O)[C@H](CO)NC(=O)[C@@H](NC(=O)[C@H](Cc2ccccc2)NC(=O)[C@@H](NC(=O)CNC(=O)[C@H](CCC(N)=O)NC(=O)[C@@H](CO)NC(=O)[C@@H](N)Cc2cscn2)[C@@H](C)O)[C@@H](C)O)C(=O)N[C@@H](CCC(N)=O)C(=O)N[C@@H](CCCNC(=N)N)C(=O)N[C@@H](C)C(=O)N1)C(=O)N[C@@H](CCC(=O)O)C(=O)N[C@@H](Cc1c[nH]c2ccccc12)C(=O)N[C@@H](CC(C)C)C(=O)N[C@@H](CC(C)C)C(=O)N[C@@H](C)C(=O)N[C@H](C(=O)NCC(=O)N1CCC[C@H]1C(=O)N[C@@H](CCC(=O)O)C(=O)N[C@@H](CO)C(=O)NCC(=O)N[C@@H](C)C(=O)N1CCC[C@H]1C(=O)N1CCC[C@H]1C(=O)N1CCC[C@H]1C(=O)N[C@@H](CO)C(=O)N[C@@H](CSCCS(=O)(=O)CCN1CCN(CC(=O)O)CCN(CC(=O)O)CCN(CC(=O)O)CC1)C(N)=O)[C@@H](C)O [[^68Ga]Ga-DO3A-S01-GCG, metal not drawn] (H-[Ala(4-thiazolyl)][dS]QGTFTSDYSKQLDEQRAKEFIEWLLATGPESGAPPPSC(DO3A(CH2CH2SO2CH2CH2))-NH2; lactam 16-20)",effect of co-incubation with GCG on binding to sections of GCGR-transfected cell pellet,[1]; 10 μM GCG,completely abolished
same,effect of co-incubation with own precursor peptide on binding to sections of GCGR-transfected cell pellet,[1]; 10 μM precursor,completely abolished
same,effect of GLP-1 in excess on tracer binding to liver sections,"[2]; 1 μM GLP-1, n = 3",did not induce inhibition
same,inhibition of tracer binding to liver sections by co-incubation with own precursor peptide,"[2]; 10 μM precursor, n = 3",did not increase the degree of inhibition
same,binding to GCGR-transfected cells at steady state / plateau (total cell-associated),"[3]; 3–7 nM tracer, RT, after 60–120 min (S01) or 60 min (S02), triplicates, 3 batches",approximately 65 % ID/million cells
same,effect of cooling on internalization,"[3]; 4 °C, 60 and 120 min",suppressed almost completely
